AC50 data for 76 molecules are collected here from PubChem BioAssay AID463206 (Broad Institute, 2010).

Active and inactive are the calls of the source.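 The calls were made as follows: active = caspase luminescence falls with dose and the half-maximal concentration AC50 from the fitted curve is at or below a set limit; inconclusive = flat fit at 30 to 70% signal loss, or invalid fit; inactive = AC50 above the limit, or signal rises instead.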

In the assay the test system is INS-1E cytokine-induced caspase-3/7, Caspase-Glo luminescence, 48 h. Description: suppression of cytokine-driven beta-cell apoptosis – INS-1E rat cells, luminescence, orthogonal assay for beta-cell apoptosis protection project, dose response (AID 463206).

Take `COCc1ccc(O)c2ncccc12`: the AC50 was > 26 µM (inactive). For the molecule `O=S(=O)(c1ccc(F)c(F)c1F)N1CCN(c2ncnc3sccc23)CC1`, the AC50 is > 26 µM (inactive). Regarding `COc1cccc(/C=N/Nc2ncc(C(F)(F)F)cc2Cl)c1O`, the AC50 is > 26 µM (inactive). In the case of `CN(C)C1CCN(Cc2cc(COCc3ccccc3)c3cccnc3c2O)C1` (stereo unspecified), the AC50 was > 26 µM (inactive).

Consider `CCCCCn1c(=O)c(C(=O)NCc2ccccc2Cl)c(O)c2ccccc21`, for which the AC50 is > 26 µM (inactive). With `COc1ccc(O)c(/C=N/NC(=O)c2ccc(OCc3cccc(Br)c3)cc2)c1`, the AC50 is > 26 µM (inactive). To `O=c1[nH]c(=O)n(Cc2ccco2)c2c1C(C(F)(F)F)(C(F)(F)F)N=C(c1ccc(F)cc1)N2` belongs > 26 µM (inactive); to `COc1ccc(C(=O)NC(=S)NNC(=O)c2cnccn2)cc1OC`, > 26 µM (inactive); to `O=C(c1ccccc1)C(CCC(CN1CCOCC1)C(=O)c1ccccc1)CN1CCOCC1` (stereo unspecified), > 26 µM (inactive). To `O=C(c1ccccc1)c1c2c(cc3sc4ccccc4[n+]13)-c1cccc3cccc-2c13` belongs > 26 µM (inactive); to `O=C(N/N=C\c1ccc([N+](=O)[O-])s1)c1cncc(Br)c1`, > 26 µM (inactive).

Regarding `CCOc1ccc(/C=N/NC(=O)c2[nH]ncc2Br)c(O)c1`, the AC50 was > 26 µM (inactive).

For the molecule `C#CC[N+](C)(C)CCCCCCCCCCCC`, the AC50 was > 26 µM (inactive). On to `Cc1onc(-c2c(Cl)cccc2Cl)c1C(=O)N/N=C(\N)COc1ccc(Cl)cc1`, for which the AC50 is > 26 µM (inactive). On to `Cc1nc(Nc2cnc(/C=C/c3cc(C(=O)Nc4cccc(C(F)(F)F)c4)ccc3C)cn2)cc(N2CCNCC2)n1`, for which the AC50 was > 26 µM (inactive). For `CCOc1cc(/C=C2\COc3ccccc3C2=O)cc(Br)c1OCC(=O)N(C)C` the value was > 26 µM (inactive); for `CNc1ccc2oc(C[C@H]3O[C@@]4(CC[C@H]3C)O[C@H]([C@H](C)C(=O)c3ccc[nH]3)[C@H](C)C[C@H]4C)nc2c1C(=O)O`, > 26 µM (inactive); for `O=S1(=O)C=C(Sc2nc3ccccc3s2)c2ccccc21`, > 26 µM (inactive). As to `Cc1ccc(C(=O)Nc2nc(-c3ccccn3)cs2)cc1S(=O)(=O)N1CCOCC1`, the AC50 was > 26 µM (inactive). As to `O=C(N/N=C/c1ccc([N+](=O)[O-])o1)c1ccc(O)cc1`, the AC50 was > 26 µM (inactive). For `O=[N+]([O-])c1c(Nc2ccccn2)cc(Cl)c2nonc12` the value was > 26 µM (inactive); for `Cc1ccc(-c2csc(NC(=O)c3c(C)noc3C)n2)s1`, > 26 µM (inactive). `C1=C(CCNc2ncnc3c2[nH]c2ccccc23)CCCC1`: the AC50 is > 26 µM (inactive). As to `CC[C@@]1(O)C(=O)OCc2c1cc1n(c2=O)Cc2cc3c(N)cccc3nc2-1`, the AC50 was 0.36 µM. For `Cc1cccc(NC(=O)c2nc(S(=O)(=O)Cc3ccccc3)ncc2Cl)c1`, the AC50 is > 26 µM (inactive). Consider `Clc1ccc2nnnc(-c3ccccc3)c2c1`, for which the AC50 was > 26 µM (inactive).

With `COc1ccc(CNc2ncnc3sccc23)cc1`, the AC50 was > 26 µM (inactive). In the case of `O=S(=O)(c1ccc(NC(=S)NCc2cccnc2)cc1)N1CCCCC1`, the AC50 is > 26 µM (inactive). In the case of `O=[N+]([O-])c1cnc(Sc2ccncn2)s1`, the AC50 is > 26 µM (inactive).

Regarding `O=C(OCn1ncc(Br)c(Br)c1=O)c1ccc(F)cc1`, the AC50 is > 26 µM (inactive). In the case of `CCN(CC)S(=O)(=O)c1cc(NC(=O)CNc2cccc(S(=O)(=O)N3CCCC3)c2)ccc1C`, the AC50 was > 26 µM (inactive). `COc1ccc(C(C)NCCC(c2ccc(OC(C)C)cc2)c2ccccc2OC)cc1` (stereo unspecified): the AC50 is > 26 µM (inactive).

As for `CCCCC[n+]1ccn(C2=C([O-])c3ccccc3C(=O)/C2=N\S(=O)(=O)c2ccccc2)c1`, the AC50 was > 26 µM (inactive).

For the molecule `CCN1CCN(CCCNC(=O)c2ccc3c(c2)NC(=O)/C(=C\c2cccc(C)c2)S3)CC1`, the AC50 is 10.3 µM. To `CCC1=NN(C(=O)c2cccc(Br)c2)C(O)(c2ccc(Br)cc2)C1` (stereo unspecified) belongs > 26 µM (inactive); to `CC(=O)N(C)C1=C(N2CCOCC2)C(=O)c2ccccc2C1=O`, > 26 µM (inactive); to `Cc1cc(C(=O)N/N=C/c2cc(N=Nc3ccccc3)ccc2O)n[nH]1`, > 26 µM (inactive).

As to `CCN(CC)c1ccc(/C=N/NC(=O)c2ccc3nc[nH]c3c2)c(O)c1`, the AC50 was > 26 µM (inactive).

For `CCN(C1CCCCC1)S(=O)(=O)c1ccc(S(=O)(=O)NCc2ccncc2)cc1`, the AC50 was > 26 µM (inactive). For `O=C(/C(=C/c1ccc(Cl)cc1)c1nc2ccccc2[nH]1)c1ccccc1` the value was > 26 µM (inactive). With `FC(F)(F)c1nnc2c(Sc3ccccc3)nc3ccc(Cl)cc3n12`, the AC50 was > 26 µM (inactive). Turning to `O=C(N/N=C/c1cc([N+](=O)[O-])ccc1O)c1cccc2cc[nH]c12`, the AC50 was > 26 µM (inactive). Consider `O=C(Nc1nc(-c2ccccn2)cs1)c1cc(Cl)ccc1[N+](=O)[O-]`, for which the AC50 is > 26 µM (inactive).

In the case of `CCOC(=O)c1cnc(-n2nc(C)cc2C)nc1NCc1ccccc1`, the AC50 is > 26 µM (inactive). In the case of `CCCCCCCCCC[N+](C)(C)CC/C=C1/c2ccccc2Sc2ccc(Cl)cc21`, the AC50 was > 26 µM (inactive). In the case of `CC1(C)CCN2CCC(C)(C)c3c(O)ccc1c32`, the AC50 is > 26 µM (inactive).

For `CC(C)(C)C(=O)Nc1ccc(C(=O)N/N=C/c2ccccc2OC(=O)c2ccc(Cl)cc2)cc1`, the AC50 was > 26 µM (inactive). Consider `CC(C)(C)c1ccc(NNC(=O)C2CCC2)cc1`, for which the AC50 was > 26 µM (inactive). To `S=C(Nc1ccc(Cl)cc1)Nc1cccc2cnccc12` belongs > 26 µM (inactive); to `Cc1ccccc1Nc1c(-c2ccccn2)nc2c(C)cccn12`, > 26 µM (inactive).

As to `O=C(NCc1cccnc1)c1cc(-c2ccco2)on1`, the AC50 was > 26 µM (inactive). As to `COc1cccc(/C=N/NC(=O)c2ccoc2C)c1O`, the AC50 is > 26 µM (inactive). Turning to `N#Cc1c(Cl)nsc1NC(=O)c1ccccc1`, the AC50 is > 26 µM (inactive). As for `Cc1cccc(Oc2cc(NC(=O)c3ccccc3)cc([N+](=O)[O-])c2)c1`, the AC50 is > 26 µM (inactive). Take `O=C(NCc1ccccc1)C1=C[C@@H](c2csc3ccccc23)C[C@@H](OCc2ccc(CO)cc2)O1`: the AC50 was > 26 µM (inactive). `COc1ccc(/C=C/C(=O)NC(=S)Nc2ccccc2C(=O)NC2CCCCC2)cc1`: the AC50 was > 26 µM (inactive). On to `CC1CCN(Cc2c(C(=O)N/N=C/c3ccccc3O)nnn2-c2nonc2N)CC1`, for which the AC50 was > 26 µM (inactive). Consider `CCCC(=O)NC(c1ccc(N(C)C)cc1)c1ccc2cccnc2c1O` (stereo unspecified), for which the AC50 was > 26 µM (inactive). To `CCC(=O)NC(c1ccccc1OC)c1ccc2cccnc2c1O` (stereo unspecified) belongs > 26 µM (inactive). Consider `Cc1cc(C)n(Cc2ccc(NC(=O)c3ccc(COc4ccccc4Br)cc3)cc2)n1`, for which the AC50 was > 26 µM (inactive). On to `Cc1cc(N/N=C/c2cccc(Cl)c2)nc(-n2nc(C)cc2C)n1`, for which the AC50 is > 26 µM (inactive). Turning to `CCc1ccc(S(=O)(=O)/N=C2\C=C(Nc3ccc(O)cc3)C(=O)c3ccccc32)cc1`, the AC50 is > 26 µM (inactive). `COc1ccc(-c2nc3ccc(C)cn3c2NCc2ccccc2)cc1SC1CCCCC1`: the AC50 is > 26 µM (inactive). `Cc1ccc(-c2cc(-c3ccccc3)cc(-c3ccccc3)[n+]2-c2ccccc2)cc1`: the AC50 was > 26 µM (inactive). On to `CCOC(=O)c1ccc(-[n+]2c(-c3ccccc3)cc(-c3ccccc3)cc2-c2ccccc2)cc1`, for which the AC50 was > 26 µM (inactive). As for `COc1ccc(/C=N/Nc2cc(C)nc3ccc(Br)cc23)cc1`, the AC50 is > 26 µM (inactive). As for `Cc1ccc(-c2csc(N3CCC(NS(=O)(=O)c4ccc5c(c4)OCCO5)CC3)n2)cc1`, the AC50 is > 26 µM (inactive). As for `Cc1ccccc1N=Nc1ccc(O)c2ncccc12`, the AC50 was > 26 µM (inactive). Turning to `CC(C)[C@H]1C(=O)O[C@H](C(C)C)C(=O)N(C)[C@@H](C(C)C)C(=O)O[C@H](C(C)C)C(=O)N(C)[C@@H](C(C)C)C(=O)O[C@H](C(C)C)C(=O)N1C`, the AC50 is > 26 µM (inactive).

In the case of `CCOC(=O)C(C(C)=O)c1c(Br)c(O)c(O)c2c(C(=O)c3ccc(C)cc3)coc12` (stereo unspecified), the AC50 is > 26 µM (inactive). Take `O=C(OCn1ncc(Cl)c(Cl)c1=O)c1ccccc1Cl`: the AC50 was > 26 µM (inactive). As for `Cc1ccc(S(=O)(=O)Nc2ccc(NC(=O)Nc3cccc(C(F)(F)F)c3)cc2)cc1`, the AC50 is > 26 µM (inactive).

As to `COc1cccc(C(=O)Oc2c(Br)cc(Br)cc2/C=N/NC(=O)c2cc(C)[nH]n2)c1`, the AC50 is > 26 µM (inactive). Take `CC1CCC(C(C)C)C(OC(=O)Cn2c(-c3ccc(F)cc3)[n+](C)c3ccccc32)C1` (stereo unspecified): the AC50 was > 26 µM (inactive). For `CCN(CC)c1ccc(/C=N/N(c2ccccc2)c2ccccc2)c(O)c1`, the AC50 is > 26 µM (inactive). For the molecule `CCc1ccc2c(c1)C1(C(=O)N2)N2CCCC2C(C(=O)c2ccc3ccccc3c2)C12C(=O)Nc1ccccc12` (stereo unspecified), the AC50 was > 26 µM (inactive).
